pEC50, pKd: −log10 of the molar value. Several values for one entry are separate records, joined by “and”; a condition that tells them apart may be missing. Identical values can stand only once.
Columns and labels:
[1] = target: FKBP12 (Homo sapiens, UniProt P62942); assay: Spectral shift target engagement assay, binary binding to FKBP12; details: 40 nM FKBP12-NTA
Source text: (§1) Our method of choice is the spectral shift method, which monitors binding events on the target isothermally and in equilibrium via an environment-sensitive near-infrared fluorophore. In the case of target engagement, either the proximity of the ligand towards the dye or structural changes occurring in the target as a result of binding lead to a change in the chemical environment of the fluorophore. Those changes affect the physiochemical properties of the reporter fluorophore and translate into either blue or red shifts (or peak broadening) of emission peaks upon ligand binding, which can be sensitively monitored by simultaneously recording the fluorescence at two wavelengths (i.e., at 650 nm and 670 nm). Calculating the ratio between the two fluorescence channels then allows to monitor subtle emission shifts that occur as a result of target engagement. Affinity measurements can then be performed by recording the spectral shift as a function of ligand concentration.
Binding studies through FKBP12: To monitor the binding of R,--SLF-11 by the stronger binding FKBP12 in the absence and in the presence of 10 μM MAPRE1 via %Cbound, binary and %Cbound, ternary, respectively, the concentration of reversibly NTA-labeled FKBP12 was limited to [Ctot] = 40 nM. […] In contrast to the experimental setup in the previous two binding experiments with monitoring through the weaker binding protein MAPRE1, where the applied protein concentrations were optimally chosen, this is not the case for the binding experiment through the stronger binder FKBP12. First of all, the applied excess of T with [Ttot] = 10 μM is roughly 20000-fold off of the proposed 100 times KT,1 threshold, which would correspond to 180 mM. Only under such excess conditions of T can the equilibrium of forming TL under the constraint that all ligand L is bound to T be reached to ensure that [Ltot] approaches the “ligand” concentration [TL]. […] If KC,2 is sufficiently high, the 20 nM deviation to correct for the protein concentration could be neglected. However, the resulting calculated value for KC,2 is 0.023 nM, accounting for the cooperativity α = 10,405 and KC,1 = 234 nM as derived by the MAPRE1 experiment. This value is far below the applied protein concentration of [Ctot] = 40 nM and makes it infeasible to estimate KC,2 from the EC50 of the %Cbound, ternary curve. Consequently, the EC50 shifts, meaning the apparent cooperativity, from monitoring the binding by the stronger binding protein C are diverging from the underlying intrinsic cooperativity α. […] The deviation of calculated (254 nM/24.2 nM = 10.5) and measured apparent cooperativity (254 nM/66 nM = 3.8) can be explained by a negative cooperativity induced by the His6-NTA tag of FKBP12. Studies to lower [Ctot] and identify a better position for the spectral shift tag on FKBP12 are ongoing (Figure 6a).
(§2) His-tagged FKBP12 was labeled using the His-Tag Labeling Kit RED-tris-NTA 2nd Generation (MO-L018; NanoTemper Technologies GmbH). The affinity between NTA dye and the His-tag of FKBP12 was determined as 7 nM. MAPRE1 was labeled using the Protein Labeling Kit RED-NHS 2nd Generation (MO-L011; NanoTemper Technologies GmbH). In brief, 10 µM of MAPRE1 was incubated with a 3-fold molar excess of fluorophore for 30 min. The unreacted fluorophore was removed by performing a size exclusion purification (B-column). Collecting the protein fraction yielded 1.8 µM labeled MAPRE1, with a degree of labeling of 0.8, as determined on a Nanodrop.
A 1:2 dilution series of all compounds (starting from the 10 mM stock concentration) was prepared in pure DMSO. Each concentration was diluted 25-fold with assay buffer (20 mM HEPES, pH 7.4, 150 mM NaCl, 1 mM DTT (all from Carl Roth, Karlsruhe, Germany), and 0.01% Pluronic F-127 (Sigma Aldrich, Taufkirchen, Germany)). Next, 10 µL from each of the prepared ligand dilutions was transferred into an empty well on a Dianthus Microwell Plate (DI-P001A). […]

[2] = target: T1, MAPRE1 in the presence of FKBP12 (Homo sapiens, UniProt P62942+Q15691); assay: Spectral shift target engagement assay, binding to MAPRE1 in the presence of 10 μM FKBP12 (ternary)
T1 construct: His-tag (N)
T1 sequence (Q15691 whole entry): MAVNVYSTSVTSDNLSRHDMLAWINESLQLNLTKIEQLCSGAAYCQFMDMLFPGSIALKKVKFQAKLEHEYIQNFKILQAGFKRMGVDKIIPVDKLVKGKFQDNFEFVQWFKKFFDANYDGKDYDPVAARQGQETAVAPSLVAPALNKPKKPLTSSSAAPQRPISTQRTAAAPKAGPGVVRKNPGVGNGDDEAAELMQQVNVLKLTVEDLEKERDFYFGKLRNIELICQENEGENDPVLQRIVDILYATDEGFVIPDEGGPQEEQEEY
T1 sequence (P62942 whole entry): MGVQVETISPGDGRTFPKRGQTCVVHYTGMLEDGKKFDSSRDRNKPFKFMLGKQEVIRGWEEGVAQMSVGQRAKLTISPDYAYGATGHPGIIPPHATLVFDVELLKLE
Source text: as §1
Binding study through MAPRE1: MAPRE1 was labeled via lysines using an NHS-conjugated dye. The final concentration of MAPRE1NHS (referring to [Ttot]) was 5 nM. Compounds could be titrated up to a concentration of 200 μM (referring to [Ltot]). […] However more accuracy could only be achieved at higher ligand concentrations—ideally at full target saturation. However, this was experimentally infeasible due to assay conditions (i.e., the requirement of maintaining a certain DMSO concentration or avoiding solubility issues of the ligand). Although the determined KT,1 values of binding to MAPRE1 are only approximations, their relative ranking reflects the underlying differences in the affinity of the ligands L to MAPRE1. Performing these experiments in duplicates confirmed the high signal-to-noise ratio, i.e., there was no significant deviation between the two curves, indicating a high accuracy of the interpolated EC50 values. Due to the low [Ttot] = 5 nM, this value coincides with KT,1 (1.8 mM − 0.005 mM/2 ≈ 1.8 mM). […] Consequently, KT,2 corresponds to 173 nM and not 177.5 nM.
as §2
A 1:2 dilution series of all compounds (starting from the 10 mM stock concentration) was prepared in pure DMSO. Each concentration was diluted 25-fold with assay buffer (20 mM HEPES, pH 7.4, 150 mM NaCl, 1 mM DTT (all from Carl Roth, Karlsruhe, Germany), and 0.01% Pluronic F-127 (Sigma Aldrich, Taufkirchen, Germany)). Next, 10 µL from each of the prepared ligand dilutions was transferred into an empty well on a Dianthus Microwell Plate (DI-P001A). Another 10 µL of 2-fold concentrated labeled protein (either in the absence or the presence of 20 µM counter protein, both in assay buffer then yielded the final assay concentrations. Interaction measurements were prepared in duplicates for each condition. For binary interactions of compounds with MAPRE1, a final target concentration of 5 nM and a highest ligand concentration of 50 µM was prepared. For ternary interactions of compounds and MAPRE1 in the presence of 10 µM unlabeled FKBP12, the highest ligand concentration was increased to 200 µM, the highest concentration achievable while maintaining a constant 2% DMSO concentration. For all interactions measured via FKBP12, the target was prepared at a final concentration of 40 nM, supplemented with 5 nM NTA fluorophore. […]

[3] = tested on: FKBP12:R,S-SLF-X:MAPRE1 ternary complex; design: method as in PMID 40059881; details: TR-FRET proximity assay, reported earlier; cited from earlier work

Sequence of FKBP12 (P62942 whole entry, species assumed): as the sequence (P62942 whole entry) above

C=C1CCN2C(=O)COc3cccc(c3)C(CCc3ccc(OC)c(OC)c3)OC(=O)C3CCCCN3C(=O)C(=O)C(C)(C)COC(=O)C(CN)NC(=O)C2C1 (centres unmarked) [R,S-SLF-7]
pEC50 ([1]; no MAPRE1, read-out: EC50 of the %Cbound, binary curve): 6.73
pKd ([1]; KC,1 = EC50 − [Ctot]/2): 6.78
pEC50 ([2]; 5 nM MAPRE1-NHS, 10 μM FKBP12, read-out: EC50 of the %Tbound, ternary curve): 5.70
Ratio [Ctot]/KC,1 ([2]; [Ctot] = 10 μM FKBP12): 60
100 × (EC50 %Tbound ternary − 0.5 [Ttot] − KT,2)/KT,2 ([2]; difference between EC50 of the %Tbound, ternary curve and KT,2, [Ttot] = 5 nM): 2% and 2.1%
Intrinsic cooperativity α ([2]; from KC,1, KT,1 and EC50 of the %Tbound, ternary curve with the mathematical model, [Ctot] = 10,000 nM, [Ttot] = 5 nM): 237
pKd ([2]; ternary Kd, model-based ([CL] at [Ltot] = EC50), read-out: KT,2): 5.71
TR-FRET Recruitment Assay (%Amax) [3]: 45%

Source: paper PMC11989212, “Experimental Conditions to Retrieve Intrinsic Cooperativity α Directly from Single Binding Assay Data Exemplified by the Ternary Complex Formation of FKBP12, MAPRE1 and Macrocyclic Molecular Glues” (International Journal of Molecular Sciences, 2025)
